Reference: PubChem BioAssay AID248 (DTP/NCI, 2004)
Where “and” joins values, the source holds several entries; their conditions need not be identical. Equal values may be shown once. Toxic doses and inconclusive results are not listed. No stated cut-off is given here; in the data, active means T/C of 150% or more; inactive means T/C below 125%.

Test system: L1210 leukemia ip in BDF1 mice, survival T/C
Assay: NCI In Vivo Anticancer Drug Screen. Data for tumor model L1210 Leukemia (intraperitoneal) in B6D2F1 (BDF1) mice
Conditions: endpoint: mean survival time, higher = longer survival
Summary of the method: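 Ratio derived from survival: compound-dosed mice over vehicle-dosed mice, all bearing a transplantable tumor.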

[1] = dose: 100.0 mg/kg/injection, schedule: Q01DX001 (ip), vehicle: saline
[2] = dose: 200.0 mg/kg/injection, schedule: Q01DX001 (ip), vehicle: saline
[3] = dose: 400.0 mg/kg/injection, schedule: Q01DX001 (ip), vehicle: saline
[4] = dose: 50.0 mg/kg/injection, schedule: Q04DX003 (ip), vehicle: Klucel (hydroxypropylcellulose) (HPC)
[5] = dose: 100.0 mg/kg/injection, schedule: Q04DX003 (ip), vehicle: Klucel (hydroxypropylcellulose) (HPC)
[6] = dose: 200.0 mg/kg/injection, schedule: Q04DX003 (ip), vehicle: Klucel (hydroxypropylcellulose) (HPC)
[7] = dose: 400.0 mg/kg/injection, schedule: Q04DX003 (ip), vehicle: Klucel (hydroxypropylcellulose) (HPC)
[8] = dose: 100.0 mg/kg/injection, schedule: Q04DX003 (ip), vehicle: saline
[9] = dose: 200.0 mg/kg/injection, schedule: Q04DX003 (ip), vehicle: saline
[10] = dose: 100.0 mg/kg/injection, schedule: Q04DX002 (ip), vehicle: saline with Tween-80
[11] = dose: 200.0 mg/kg/injection, schedule: Q04DX002 (ip), vehicle: saline with Tween-80
[12] = dose: 25.0 mg/kg/injection, schedule: Q01DX009 (ip), vehicle: saline with Tween-80
[13] = dose: 50.0 mg/kg/injection, schedule: Q01DX009 (ip), vehicle: saline with Tween-80
[14] = dose: 100.0 mg/kg/injection, schedule: Q04DX003 (ip), vehicle: saline with Tween-80
[15] = dose: 200.0 mg/kg/injection, schedule: Q04DX003 (ip), vehicle: saline with Tween-80
[16] = dose: 400.0 mg/kg/injection, schedule: Q04DX003 (ip), vehicle: saline
[17] = dose: 100.0 mg/kg/injection, schedule: Q01DX009 (ip), vehicle: saline with Tween-80
[18] = dose: 200.0 mg/kg/injection, schedule: Q01DX009 (ip), vehicle: saline with Tween-80
[19] = dose: 400.0 mg/kg/injection, schedule: Q01DX009 (ip), vehicle: saline with Tween-80
[20] = dose: 400.0 mg/kg/injection, schedule: Q04DX003 (ip), vehicle: saline with Tween-80

Measured: T/C

C=CC(N)=O (tested in a mixture with another compound)
inactive: [1] 99 % of control | [2] 99 % of control | [3] 89 % of control

ClC1(Cl)C2CCC3(CC21)OCCO3 (stereo unspecified)
inactive: [4] 115 % of control | dose: 100.0 mg/kg/injection, schedule: Q01DX001 (ip), vehicle: Klucel (hydroxypropylcellulose) (HPC) 114 % of control | [5] 103 % of control | dose: 200.0 mg/kg/injection, schedule: Q01DX001 (ip), vehicle: Klucel (hydroxypropylcellulose) (HPC) 106 % of control | [6] 93 % of control | dose: 400.0 mg/kg/injection, schedule: Q01DX001 (ip), vehicle: Klucel (hydroxypropylcellulose) (HPC) 101 % of control | [7] 106 % of control

CNC(=S)Nc1ccccc1
inactive: dose: 100.0 mg/kg/injection, schedule: Q04DX003 (ip), vehicle: carboxymethylcellulose (CMC) 95 % of control | dose: 200.0 mg/kg/injection, schedule: Q04DX003 (ip), vehicle: carboxymethylcellulose (CMC) 96 % of control

CNc1ccccc1C(N)=S
inactive: dose: 50.0 mg/kg/injection, schedule: Q01DX009 (ip), vehicle: saline 111 % of control | dose: 50.0 mg/kg/injection, schedule: Q04DX003 (ip), vehicle: saline 106 % of control | dose: 100.0 mg/kg/injection, schedule: Q01DX009 (ip), vehicle: saline 97 % of control | [8] 105 % of control | dose: 200.0 mg/kg/injection, schedule: Q01DX009 (ip), vehicle: saline 101 % of control | [9] 105 % of control

CN(C)CC/C=C1\c2ccccc2CCSc2ccccc21
inactive: dose: 25.0 mg/kg/injection, schedule: Q04DX003 (ip), vehicle: Klucel (hydroxypropylcellulose) (HPC) 100 % of control | [4] 100 % of control | [5] 98 % of control

c1ccc(COC2NCCN2Cc2ccccc2)cc1 (stereo unspecified)
inactive: [1] 98 % of control | [2] 101 % of control | [3] 101 % of control

CC(CCl)OP(=O)(Cc1ccccc1)OC(C)CCl (stereo unspecified)
inactive: [10] 91 % of control | [11] 98 % of control | dose: 400.0 mg/kg/injection, schedule: Q04DX002 (ip), vehicle: saline with Tween-80 98 % of control

NN=C1CCC(=NN)CC1
inactive: dose: 25.0 mg/kg/injection, schedule: Q01DX009 (ip), vehicle: water 101 % of control | dose: 25.0 mg/kg/injection, schedule: Q04DX003 (ip), vehicle: water 109 % of control | dose: 50.0 mg/kg/injection, schedule: Q01DX009 (ip), vehicle: water 114 % of control | dose: 50.0 mg/kg/injection, schedule: Q04DX003 (ip), vehicle: water 109 % of control | dose: 100.0 mg/kg/injection, schedule: Q04DX003 (ip), vehicle: water 114 % of control and 124 % of control

CC#CC(=O)SCCNC(=O)CC
inactive: [12] 104 % of control | [13] 96 % of control | [14] 103 % of control | [15] 91 % of control

CC(=O)O/N=C(\C)C12CCCCC1C(O)CCC2 (stereo unspecified)
inactive: [1] 91 % of control | [8] 94 % of control | [2] 91 % of control | [9] 101 % of control | [3] 91 % of control | [16] 104 % of control

CN(N)C(=O)Nc1ccccc1
inactive: dose: 75.0 mg/kg/injection, schedule: Q01DX001 (ip), vehicle: carboxymethylcellulose (CMC) 100 % of control | dose: 150.0 mg/kg/injection, schedule: Q01DX001 (ip), vehicle: carboxymethylcellulose (CMC) 100 % of control

O=C(CSc1cc(-c2ccc(Cl)cc2)s[s+]1)c1ccccc1
inactive: [17] 100 % of control | [14] 93 % of control | [18] 97 % of control | [15] 96 % of control | [19] 103 % of control | [20] 100 % of control

Cn1nc(C#N)c(C#N)c1NC(=O)C(C)(C)C
inactive: dose: 50.0 mg/kg/injection, schedule: Q04DX002 (ip), vehicle: saline with Tween-80 92 % of control | [10] 103 % of control | [11] 106 % of control

COC(=O)c1cccc2c1C1CCC2c2cccc(C(=O)OC)c21
inactive: dose: 100.0 mg/kg/injection, schedule: Q04DX002 (ip), vehicle: gum acacia 101 % of control | dose: 200.0 mg/kg/injection, schedule: Q04DX002 (ip), vehicle: gum acacia 96 % of control | dose: 400.0 mg/kg/injection, schedule: Q04DX002 (ip), vehicle: gum acacia 99 % of control

C=CCCCCCCCCC(=O)N(CCOC)CCOC
inactive: [12] 96 % of control | [13] 100 % of control | [17] 100 % of control and 91 % of control

COc1ccc(NC(=O)/C=C/C(=O)O)cc1
inactive: dose: 100.0 mg/kg/injection, schedule: Q04DX002 (ip), vehicle: Klucel (hydroxypropylcellulose) (HPC) 103 % of control | dose: 200.0 mg/kg/injection, schedule: Q04DX002 (ip), vehicle: Klucel (hydroxypropylcellulose) (HPC) 95 % of control | dose: 400.0 mg/kg/injection, schedule: Q04DX002 (ip), vehicle: Klucel (hydroxypropylcellulose) (HPC) 120 % of control

CCN(CC)C(C)(C)CCl
inactive: [1] 104 % of control

COc1cccc2c1N=c1c(Cl)c3c(c(Cl)c1O2)=Nc1c(OC)cccc1O3
inactive: [5] 106 % of control | [6] 102 % of control | [7] 113 % of control

CCOC1(OCC)CS(=O)(=O)C1
inactive: dose: 25.0 mg/kg/injection, schedule: Q01DX009 (ip), vehicle: saline sonified 100 % of control | dose: 50.0 mg/kg/injection, schedule: Q01DX009 (ip), vehicle: saline sonified 95 % of control | dose: 100.0 mg/kg/injection, schedule: Q01DX009 (ip), vehicle: saline sonified 106 % of control | [8] 109 % of control | [9] 117 % of control | [16] 112 % of control

C[N+](C)(C)Cc1ncccc1OC(=O)N(c1ccccc1)c1ccccc1
inactive: dose: 25.0 mg/kg/injection, schedule: Q04DX003 (ip), vehicle: saline with Tween-80 96 % of control | dose: 50.0 mg/kg/injection, schedule: Q04DX003 (ip), vehicle: saline with Tween-80 96 % of control | [14] 96 % of control and 101 % of control

Cc1ccnc(SC#N)n1
inactive: dose: 5.0 mg/kg/injection, schedule: Q01DX001 (ip), vehicle: other 105 % of control | dose: 10.0 mg/kg/injection, schedule: Q01DX001 (ip), vehicle: other 105 % of control

COc1ccc2[nH]c3c(c(=O)c2c1)CCCC3
inactive: dose: 50.0 mg/kg/injection, schedule: Q01DX001 (ip), vehicle: carboxymethylcellulose (CMC) 101 % of control | dose: 100.0 mg/kg/injection, schedule: Q01DX001 (ip), vehicle: carboxymethylcellulose (CMC) 95 % of control | dose: 200.0 mg/kg/injection, schedule: Q01DX001 (ip), vehicle: carboxymethylcellulose (CMC) 100 % of control | dose: 400.0 mg/kg/injection, schedule: Q01DX001 (ip), vehicle: carboxymethylcellulose (CMC) 97 % of control

CCC(C)(O)C#Cc1ccc(C)nc1 (stereo unspecified)
inactive: [14] 97 % of control | [15] 96 % of control | [20] 94 % of control

c1cc(Sc2ccc(OCC3CO3)cc2)ccc1OCC1CO1 (stereo unspecified)
inactive: dose: 100.0 mg/kg/injection, schedule: Q01DX001 (ip), vehicle: other 94 % of control | dose: 200.0 mg/kg/injection, schedule: Q01DX001 (ip), vehicle: other 97 % of control | dose: 400.0 mg/kg/injection, schedule: Q01DX001 (ip), vehicle: other 92 % of control

O=C1c2ccccc2C(=O)N1CNc1ccc(Cc2ccc(NCN3C(=O)c4ccccc4C3=O)c(Cl)c2)cc1Cl
inactive: [17] 92 % of control | [8] 101 % of control | [18] 92 % of control | [9] 96 % of control | [19] 92 % of control | [16] 96 % of control

CC(=O)NS(=O)(=O)c1ccc(N=Cc2ccccc2O)cc1
inactive: dose: 100.0 mg/kg/injection, schedule: Q01DX009 (ip), vehicle: Klucel (hydroxypropylcellulose) (HPC) 101 % of control | dose: 200.0 mg/kg/injection, schedule: Q01DX009 (ip), vehicle: Klucel (hydroxypropylcellulose) (HPC) 94 % of control | dose: 400.0 mg/kg/injection, schedule: Q01DX009 (ip), vehicle: Klucel (hydroxypropylcellulose) (HPC) 100 % of control
